Experimental data reported in paper PMC8347481, “Germacranolides from Carpesium divaricatum: Some New Data on Cytotoxic and Anti-Inflammatory Activity” (Molecules, 2021).
Read-outs that look alike come from different tables or passages of the source.

Key:
Du145 = test: LDH cell viability assay, prostate cancer cells; assay type: cell-based; details: Homo sapiens, DU-145; for IC50: Du145, 24 h, LDH assay
Experimental: (§1) Normal prostate epithelial cells (PNT2), two prostate cancer cell lines (Du145 and PC3), human keratinocytes (HaCaT), two melanoma cell lines (A375 and HTB140) and two colon cancer cell lines (HT29 and Caco-2) were treated with 3 at a concentration range 1.0–50.0 µg/mL. Viability of the cells was estimated using lactate dehydrogenase (LDH) assay.
(§2) Cytotoxic activity of 3 was tested on human cancer and normal cells, grouped in three panels: prostate, skin and gastrointestinal. The prostate panel comprised prostate cancer cell lines DU145 (ATCC HTB-81) and PC3 (ATCC CRL-1435) and prostate normal epithelial cells PNT2 (ECACC 95012613). Melanoma cell lines A375 (ATCC CRL-1619) and HTB140 (ATCC Hs 294T) together with human keratinocytes HaCaT (obtained as a kind gift of Prof. Marta Michalik, Department of Cell Biology, Jagiellonian University) were included in the skin panel. Two colon cancer cell lines, namely Caco-2 (ATCC HTB-37) and HT29 (ATCC HTB-38), constituted the gastrointestinal panel. Du145 cells were grown in a modified Eagle’s medium with low (1.0 g/L) glucose concentration; HT29, PC3 and PNT-2 cells were grown in Dulbecco’s modified Eagle’s medium (DMEM) and F12 HAM Nutrient Mixture; Caco-2 cells were grown in modified Eagle’s medium with nonessential amino acids (NEAA); and melanoma cells and keratinocytes were maintained in modified Eagle’s medium with high (4.5 g/L) glucose concentration. The culture media contained antibiotics and 10% fetal bovine serum (FBS). All cultures were maintained at 37 °C in a humidified, 5% CO2-containing atmosphere.
(§3) The examined compound (3) was diluted in the culture media from freshly made stock solution in MeOH (10 mg/mL) to the working concentrations (from 0 to 50 μg/mL). Cell viability was determined as described previously. […] Then, the culture medium was replaced with the medium containing different concentrations of the assessed compound (1–50 μg/mL). After 24 h of incubation, the viability of the cells was determined using colorimetric lactate dehydrogenase (LDH) assay in comparison to the controls to which corresponding aliquots of MeOH diluted with culture media were added. Cells grown in the medium without the tested compound were used as control I (negative), and the positive control (control II) was obtained by incubation of the cells in the medium containing 1% Triton X-100. LDH released from the damaged cells into the cell culture medium was quantified by measuring the absorbance at 490 nm using a Synergy II Biotek microplate reader. Cytotoxicities of the examined compounds were calculated as follows: ((absorbance of the tested sample−absorbance of control I)/(absorbance of control II−absorbance of control I)) × 100. Results were means of three independent measurements (± SD). Doxorubicin (Ebewe Pharma G.m.b.H., Unterach, Austria) was used as a reference cytostatic drug.

PC3 = test: LDH cell viability assay, prostate cancer cells; assay type: cell-based; details: Homo sapiens, PC-3; for IC50: PC3, 24 h, LDH assay
Experimental: as §1, §2, §3

[1] = LDH cell viability assay, keratinocytes; assay type: cell-based, human; details: human, HaCaT keratinocytes, read-out: Cell Viability (%) ± SD
Experimental: as §1, §2, §3

HaCaT = test: LDH cell viability assay, keratinocytes; assay type: cell-based, human; details: Homo sapiens, 24 h, LDH assay
Experimental: as §1, §2, §3

A375 = test: LDH cell viability assay, melanoma cells; assay type: cell-based; details: Homo sapiens, A-375; for IC50: A375, 24 h, LDH assay
Experimental: as §1, §2, §3

HTB140 = test: LDH cell viability assay, melanoma cells; assay type: cell-based; details: Homo sapiens; for IC50: HTB140, 24 h, LDH assay
Experimental: as §1, §2, §3

Caco-2 = test: LDH cell viability assay, colon cancer cells; assay type: cell-based; details: Homo sapiens; for IC50: Caco-2, 24 h, LDH assay
Experimental: as §1, §2, §3

[2] = system: normal and cancer cell lines (prostate, skin, gastrointestinal panels); test: LDH cytotoxicity, whole panel of normal and cancer cell lines; assay type: cell-based; details: Homo sapiens; 24 h treatment, cell density 1.5 × 10^4; doxorubicin: except PC3 cells; read-out: IC50 range over the cell lines
Experimental: Cytotoxic activity of 3 was tested on human cancer and normal cells, grouped in three panels: prostate, skin and gastrointestinal. The prostate panel comprised prostate cancer cell lines DU145 (ATCC HTB-81) and PC3 (ATCC CRL-1435) and prostate normal epithelial cells PNT2 (ECACC 95012613). Melanoma cell lines A375 (ATCC CRL-1619) and HTB140 (ATCC Hs 294T) together with human keratinocytes HaCaT (obtained as a kind gift of Prof. Marta Michalik, Department of Cell Biology, Jagiellonian University) were included in the skin panel. Two colon cancer cell lines, namely Caco-2 (ATCC HTB-37) and HT29 (ATCC HTB-38), constituted the gastrointestinal panel. […]
The examined compound (3) was diluted in the culture media from freshly made stock solution in MeOH (10 mg/mL) to the working concentrations (from 0 to 50 μg/mL). Cell viability was determined as described previously. […] Then, the culture medium was replaced with the medium containing different concentrations of the assessed compound (1–50 μg/mL). After 24 h of incubation, the viability of the cells was determined using colorimetric lactate dehydrogenase (LDH) assay in comparison to the controls to which corresponding aliquots of MeOH diluted with culture media were added. […] LDH released from the damaged cells into the cell culture medium was quantified by measuring the absorbance at 490 nm using a Synergy II Biotek microplate reader. […]

HepG2 cells = system: HepG2 cells; parameters: method as in PMID 29751555; details: HepG2, cell density 2 × 10^4, 96 h treatment; cited from earlier work
HeLa cells = system: HeLa cells; parameters: method as in PMID 29751555; details: cell density 2 × 10^4, 96 h treatment; cited from earlier work
A459 cells = system: A459 cells; parameters: method as in PMID 29751555; details: cited from earlier work
[3] = value in parentheses, read-out: IC50 (IC50 µM) (converted)

Q: What does the source list for C=C1C(=O)O[C@H]2[C@H]1[C@@H](O)[C@H](OC(=O)CC(C)C)[C@H](C)CCC(=O)[C@](C)(O)[C@@H]2OC(=O)C(C)C [Compound 3]?
A: viability at 1 µg/mL (Du145; Du145, 1 µg/mL, 24 h, read-out: Cell Viability (%) ± SD): 68.42 ± 0.52%; viability at 3 µg/mL (Du145; Du145, 3 µg/mL, 24 h, read-out: Cell Viability (%) ± SD): 56.3 ± 0.97%; viability at 5 µg/mL (Du145; Du145, 5 µg/mL, 24 h, read-out: Cell Viability (%) ± SD): 44.8 ± 2.05%; viability at 10 µg/mL (Du145; Du145, 10 µg/mL, 24 h, read-out: Cell Viability (%) ± SD): 37.7 ± 2.16%; viability at 20 µg/mL (Du145; Du145, 20 µg/mL, 24 h, read-out: Cell Viability (%) ± SD): 23.6 ± 1.54%; viability at 30 µg/mL (Du145; Du145, 30 µg/mL, 24 h, read-out: Cell Viability (%) ± SD): 12.5 ± 1.94%; viability at 50 µg/mL (Du145; Du145, 50 µg/mL, 24 h, read-out: Cell Viability (%) ± SD): 0.62 ± 0.58%; IC50 (Du145; [3]): 10.8 µM; IC50 (Du145; read-out: IC50): 5.08 ± 1.14 µg/mL; viability at 1 µg/mL (PC3; PC3, 1 µg/mL, 24 h, read-out: Cell Viability (%) ± SD): 78.5 ± 1.08%; viability at 3 µg/mL (PC3; PC3, 3 µg/mL, 24 h, read-out: Cell Viability (%) ± SD): 65 ± 1.46%; viability at 5 µg/mL (PC3; PC3, 5 µg/mL, 24 h, read-out: Cell Viability (%) ± SD): 49.9 ± 2.02%; viability at 10 µg/mL (PC3; PC3, 10 µg/mL, 24 h, read-out: Cell Viability (%) ± SD): 37.2 ± 1.27%; viability at 20 µg/mL (PC3; PC3, 20 µg/mL, 24 h, read-out: Cell Viability (%) ± SD): 29.2 ± 1.89%; viability at 30 µg/mL (PC3; PC3, 30 µg/mL, 24 h, read-out: Cell Viability (%) ± SD): 5.42 ± 2.25%; viability at 50 µg/mL (PC3; PC3, 50 µg/mL, 24 h, read-out: Cell Viability (%) ± SD): 0.65 ± 0.33%; IC50 (PC3; [3]): 19.1 µM; IC50 (PC3; read-out: IC50): 8.92 ± 1.02 µg/mL; viability at 24 h, 1 µg/mL ([1]; 1 µg/mL): 86.8 ± 1.7%; viability at 24 h, 3 µg/mL ([1]; 3 µg/mL): 74.5 ± 2.29%; viability at 24 h, 5 µg/mL ([1]; 5 µg/mL): 64.4 ± 1.33%; viability at 24 h, 10 µg/mL ([1]; 10 µg/mL): 30.5 ± 1.32%; viability at 24 h, 20 µg/mL ([1]; 20 µg/mL): 0.79 ± 0.72%; viability at 24 h, 30 µg/mL ([1]; 30 µg/mL): 0%; viability at 24 h, 50 µg/mL ([1]; 50 µg/mL): 0%; IC50 (HaCaT; read-out: IC50): 7.95 ± 0.15 µg/mL; IC50 (HaCaT; [3]): 17 µM; viability at 1 µg/mL (A375; A375, 1 µg/mL, 24 h, read-out: Cell Viability (%) ± SD): 64.2 ± 1.13%; viability at 3 µg/mL (A375; A375, 3 µg/mL, 24 h, read-out: Cell Viability (%) ± SD): 55.4 ± 1.44%; viability at 5 µg/mL (A375; A375, 5 µg/mL, 24 h, read-out: Cell Viability (%) ± SD): 43.8 ± 1.69%; viability at 10 µg/mL (A375; A375, 10 µg/mL, 24 h, read-out: Cell Viability (%) ± SD): 33 ± 2.3%; viability at 20 µg/mL (A375; A375, 20 µg/mL, 24 h, read-out: Cell Viability (%) ± SD): 7.09 ± 1.78%; viability at 30 µg/mL (A375; A375, 30 µg/mL, 24 h, read-out: Cell Viability (%) ± SD): 0.82 ± 0.65%; viability at 50 µg/mL (A375; A375, 50 µg/mL, 24 h, read-out: Cell Viability (%) ± SD): 0%; IC50 (A375; [3]): 20.4 µM; IC50 (A375; read-out: IC50): 9.57 ± 0.87 µg/mL; viability at 1 µg/mL (HTB140; HTB140, 1 µg/mL, 24 h, read-out: Cell Viability (%) ± SD): 81.4 ± 1.28%; viability at 3 µg/mL (HTB140; HTB140, 3 µg/mL, 24 h, read-out: Cell Viability (%) ± SD): 70.8 ± 2.37%; viability at 5 µg/mL (HTB140; HTB140, 5 µg/mL, 24 h, read-out: Cell Viability (%) ± SD): 50.9 ± 1.8%; viability at 10 µg/mL (HTB140; HTB140, 10 µg/mL, 24 h, read-out: Cell Viability (%) ± SD): 21.5 ± 2.53%; viability at 20 µg/mL (HTB140; HTB140, 20 µg/mL, 24 h, read-out: Cell Viability (%) ± SD): 4.1 ± 1.75%; viability at 30 µg/mL (HTB140; HTB140, 30 µg/mL, 24 h, read-out: Cell Viability (%) ± SD): 0.59 ± 0.78%; viability at 50 µg/mL (HTB140; HTB140, 50 µg/mL, 24 h, read-out: Cell Viability (%) ± SD): 0%; IC50 (HTB140; [3]): 13.6 µM; IC50 (HTB140; read-out: IC50): 6.36 ± 0.38 µg/mL; viability at 1 µg/mL (Caco-2; Caco-2, 1 µg/mL, 24 h, read-out: Cell Viability (%) ± SD): 52.8 ± 1.62%; viability at 3 µg/mL (Caco-2; Caco-2, 3 µg/mL, 24 h, read-out: Cell Viability (%) ± SD): 38.6 ± 2.35%; viability at 5 µg/mL (Caco-2; Caco-2, 5 µg/mL, 24 h, read-out: Cell Viability (%) ± SD): 15.1 ± 2.91%; viability at 10 µg/mL (Caco-2; Caco-2, 10 µg/mL, 24 h, read-out: Cell Viability (%) ± SD): 1.96 ± 2.7%; viability at 20 µg/mL (Caco-2; Caco-2, 20 µg/mL, 24 h, read-out: Cell Viability (%) ± SD): 0.31 ± 0.43%; viability at 30 µg/mL (Caco-2; Caco-2, 30 µg/mL, 24 h, read-out: Cell Viability (%) ± SD): 0%; viability at 50 µg/mL (Caco-2; Caco-2, 50 µg/mL, 24 h, read-out: Cell Viability (%) ± SD): 0%; IC50 (Caco-2; [3]): 8.29 µM; IC50 (Caco-2; read-out: IC50): 3.88 ± 0.1 µg/mL; IC50 [2]: 8.3 to 35 µM; IC50 (HepG2 cells): 17 µM; IC50 (HeLa cells): 29.4 µM; Cytotoxicity (A459 cells): resistant
